For assay [1], the target named is T1, human Elk1 (HsElk1, Kv12.1, KCNH8) (Homo sapiens, UniProt Q96L42).
T1 sequence (Q96L42 1-1107): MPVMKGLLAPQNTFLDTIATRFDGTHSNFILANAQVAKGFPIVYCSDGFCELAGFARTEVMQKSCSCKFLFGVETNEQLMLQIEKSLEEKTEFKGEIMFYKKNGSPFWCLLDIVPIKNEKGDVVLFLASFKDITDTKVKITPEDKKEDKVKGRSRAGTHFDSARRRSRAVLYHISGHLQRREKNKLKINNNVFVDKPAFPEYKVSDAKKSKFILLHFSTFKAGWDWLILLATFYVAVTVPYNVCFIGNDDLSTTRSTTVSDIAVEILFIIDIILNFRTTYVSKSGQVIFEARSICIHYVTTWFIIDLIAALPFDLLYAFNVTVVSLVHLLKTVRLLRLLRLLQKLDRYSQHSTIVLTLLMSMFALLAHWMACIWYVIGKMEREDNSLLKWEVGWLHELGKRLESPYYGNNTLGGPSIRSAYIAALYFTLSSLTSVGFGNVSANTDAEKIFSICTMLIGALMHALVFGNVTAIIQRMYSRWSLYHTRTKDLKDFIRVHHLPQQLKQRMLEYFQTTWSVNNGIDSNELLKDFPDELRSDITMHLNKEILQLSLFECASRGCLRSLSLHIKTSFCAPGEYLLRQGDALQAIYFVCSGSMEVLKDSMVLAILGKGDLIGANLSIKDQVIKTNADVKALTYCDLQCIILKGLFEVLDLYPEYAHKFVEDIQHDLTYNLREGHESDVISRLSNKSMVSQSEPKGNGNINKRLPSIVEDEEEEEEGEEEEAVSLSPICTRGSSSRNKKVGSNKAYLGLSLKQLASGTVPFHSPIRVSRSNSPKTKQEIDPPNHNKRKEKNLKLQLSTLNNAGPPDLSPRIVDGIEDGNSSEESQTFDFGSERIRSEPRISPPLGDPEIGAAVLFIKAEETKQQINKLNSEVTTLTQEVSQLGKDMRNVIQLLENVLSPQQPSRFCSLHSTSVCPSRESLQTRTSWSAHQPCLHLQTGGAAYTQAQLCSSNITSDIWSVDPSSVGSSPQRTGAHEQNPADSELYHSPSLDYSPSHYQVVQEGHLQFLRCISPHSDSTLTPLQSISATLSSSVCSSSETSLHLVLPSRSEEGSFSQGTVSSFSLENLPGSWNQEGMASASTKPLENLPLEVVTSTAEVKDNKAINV
In words: inside-out patch clamp, Hill fit of activation time constant. It counts as cell-based. (The patch-clamp technique gives a direct electrical read-out from membranes.)

The target in assay [2] is T1, human Elk1 (HsElk1, Kv12.1, KCNH8). In words: inside-out patch clamp, activation time constant. It counts as biochemical. The conditions noted are these: -20 mV, intracellular application, excised patch, pH 7.2.

The values that follow come from article PMC4621751 (The Journal of General Physiology, 2015).

Consider `CCCCCCCC(=O)OC[C@H](COP(=O)(O)O[C@@H]1[C@H](O)[C@H](O)[C@@H](OP(=O)(O)O)[C@H](OP(=O)(O)O)[C@H]1O)OC(=O)CCCCCCC` [diC8-PIP2], for which, in assay [1], the EC50 is 12.7 ± 2.2 µM.
As for `CCCCCCCC(=O)OC[C@H](COP(=O)(O)O[C@H]1[C@H](O)[C@@H](OP(=O)(O)O)[C@H](OP(=O)(O)O)[C@@H](OP(=O)(O)O)[C@H]1O)OC(=O)CCCCCCC` [diC8-PIP3], in assay [2], the “fold change of τact at 10 μM” value is listed as “PIP3 slowed activation significantly more than PIP2”.

In general, EC50 refers to the midpoint of the concentration-response curve. Read a low EC50 as greater potency.
